Data set [1] has as its system Alopecurus myosuroides (ALOMY). Briefly: Pre-emergence biological efficacy, glasshouse, 1000 g/ha, evaluated after 13 days (100=total damage to plant; 0=no damage to plant). As to conditions: Alopecurus myosuroides, 312 h, rate 1,000 g/ha, read-out: Percentage damage caused to weed species, pre-emergence, ALOMY. It is filed as in vivo. A digest of the protocol: (§1)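 Sowing: standard soil, pots. Growth: glasshouse, 24/16° C. day/night, 14 hours light, 65% humidity. Watering: twice daily.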

The test system of data set [2] is Amaranthus retroflexus (AMARE). The description is as above. It is filed as in vivo. As to conditions: Amaranthus retroflexus, 312 h, rate 1,000 g/ha, read-out: Percentage damage caused to weed species, pre-emergence, AMARE. A digest of the protocol: as §1
Data set [3] concerns Echinochloa crus-galli (ECHCG). Described as above. It is filed as in vivo. The note with it: Echinochloa crus-galli, 312 h, rate 1,000 g/ha, read-out: Percentage damage caused to weed species, pre-emergence, ECHCG. In outline: as §1
Data set [4] relates to Ipomoea hederaceae (IPOHE). Described as above. It is filed as in vivo. The note with it: Ipomoea, 312 h, rate 1,000 g/ha, read-out: Percentage damage caused to weed species, pre-emergence, IPOHE. A digest of the protocol:
as §1

Data set [5] concerns Setaria faberi (SETFA). The data set is described as above. The class given is in vivo. The note with it: Setaria faberi, 312 h, rate 1,000 g/ha, read-out: Percentage damage caused to weed species, pre-emergence, SETFA. In outline: as §1
For data set [6], the system named is Solanum nigrum (SOLNI). The data set is described as above. The class given is in vivo. The note with it: Solanum nigrum, 312 h, rate 1,000 g/ha, read-out: Percentage damage caused to weed species, pre-emergence, SOLNI. A digest of the protocol:
as §1

Data set [7] has as its system Alopecurus myosuroides (ALOMY). Put plainly: Post-emergence biological efficacy, glasshouse, 500 or 1000 g/ha, evaluated after 13 days (100=total damage to plant; 0=no damage to plant). The class given is in vivo. As to conditions: Alopecurus myosuroides, 312 h, rate 1,000 g/ha, read-out: Percentage damage caused to weed species, post-emergence, ALOMY. A digest of the protocol: (§2)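 Plants raised from seed in pots of standard soil receive the spray after emergence. They then grow on under controlled glasshouse conditions (24/16° C. day/night, 14 hours light, 65% humidity) and are watered twice a day.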

In data set [8] the test system is Amaranthus retroflexus (AMARE). The description is as above. It is filed as in vivo. As to conditions: Amaranthus retroflexus, 312 h, rate 1,000 g/ha, read-out: Percentage damage caused to weed species, post-emergence, AMARE. In outline:
as §2

Data set [9] concerns Echinochloa crusgaffi (ECHCG). Described as above. It is filed as in vivo. As to conditions: Echinochloa, 312 h, rate 1,000 g/ha, read-out: Percentage damage caused to weed species, post-emergence, ECHCG. In outline:
as §2

The test system of data set [10] is Ipomoea hederaceae (IPOHE). Described as above. It is filed as in vivo. The note with it: Ipomoea, 312 h, rate 1,000 g/ha, read-out: Percentage damage caused to weed species, post-emergence, IPOHE. In outline:
as §2

Data set [11] concerns Setaria faberi (SETFA). Described as above. As to conditions: Setaria faberi, 312 h, rate 1,000 g/ha, read-out: Percentage damage caused to weed species, post-emergence, SETFA. The class given is in vivo. In outline: as §2
For data set [12], the system named is Solanum nigrum (SOLNI). Described as above. The note with it: Solanum nigrum, 312 h, rate 1,000 g/ha, read-out: Percentage damage caused to weed species, post-emergence, SOLNI. It is filed as in vivo. In outline:
as §2

Regarding `COC(=O)c1nc(C2CC2)nc2[nH]ccc12` [Compound 1-2, 2-Cyclopropyl-4-methoxycarbonyl-7H-pyrrolo[2,3-d]pyrimidine], the melting point (in general, the temperature, or range, at which the solid turns liquid) lay in the range of 162 to 165 °C. For the same compound, the pest or weed control at 1000 g/ha in [1] was 0%. Also, the pest or weed control at 1000 g/ha in data set [2] was determined as 30%. For the same compound, the pest or weed control at 1000 g/ha in [3] was 0%. The pest or weed control at 1000 g/ha in data set [4] was determined as 20%. In the data set with Setaria faberi (SETFA) [5], the pest or weed control at 1000 g/ha came out at 0%. For the same compound, the pest or weed control at 1000 g/ha with Solanum nigrum (SOLNI) [6] is 50%. Moreover, the pest or weed control at 1000 g/ha in data set [7] was found to be 10%. The pest or weed control at 1000 g/ha in data set [8] stood at 90%. Further, the pest or weed control at 1000 g/ha in data set [9] came to 70%. Moreover, the pest or weed control at 1000 g/ha in data set [10] was found to be 100%. For the same compound, the pest or weed control at 1000 g/ha with Setaria faberi (SETFA) [11] was determined as 90%. Further, the pest or weed control at 1000 g/ha in the data set with Solanum nigrum (SOLNI) [12] turned out to be 90%.
On to `CCOCn1cc(C)c2c(C(=O)O)nc(-c3ccc(Cl)c(OC)c3F)nc21` [Compound 3-63, 4-carboxy-2-(4-chloro-2-fluoro-3-methoxyphenyl)-7-ethoxymethyl-5-methyl-7H-pyrrolo[2,3-d]pyrimidine], for which the melting point is 112 to 114 °C (dec.). Besides, the pest or weed control at 1000 g/ha in [1] was determined as 0%. Besides, in [2], the pest or weed control at 1000 g/ha is 100%. Also, the pest or weed control at 1000 g/ha in data set [3] is 0%. The pest or weed control at 1000 g/ha in data set [4] stood at 20%. Moreover, in the data set with Setaria faberi (SETFA) [5], the pest or weed control at 1000 g/ha was 0%. Also, in the data set on Solanum nigrum (SOLNI) [6], the pest or weed control at 1000 g/ha was found to be 50%. The pest or weed control at 1000 g/ha in data set [7] was determined as 0%. Further, the pest or weed control at 1000 g/ha in [8] came to 80%. The pest or weed control at 1000 g/ha in [9] turned out to be 10%. Also, in data set [10], the pest or weed control at 1000 g/ha came to 60%. The pest or weed control at 1000 g/ha in the data set with Setaria faberi (SETFA) [11] was found to be 10%. The pest or weed control at 1000 g/ha with Solanum nigrum (SOLNI) [12] worked out at 80%.
Consider `COc1c(Cl)ccc(-c2nc(C(=O)O)c3c(n2)N(C)CCN3C)c1F` [Compound 92-163, 4-Carboxy-2-(4-chloro-2-fluoro-3-methoxyphenyl)-5,8-dimethyl-5,6,7,8-tetrahydropteridine], for which the pest or weed control at 1000 g/ha (in [1]; in [2]; in data set [3]; in data set [4]; in the data set on Setaria faberi (SETFA) [5]; in the data set on Solanum nigrum (SOLNI) [6]) was 0% throughout. The pest or weed control at 1000 g/ha in [7] was found to be 10%; in data set [8] it was 0%; in [9], 10%; in data set [10] it was 10%; with Setaria faberi (SETFA) [11], 10%; in the data set with Solanum nigrum (SOLNI) [12], 10%.
As to `COc1c(Cl)ccc(-c2nc(C(=O)O)c3c(n2)N(C(C)C)CCN3C(C)C)c1F` [Compound 93-165, 4-Carboxy-2-(4-chloro-2-fluoro-3-methoxyphenyl)-5,8-diisopropyl-5,6,7,8-tetrahydropteridine], the pest or weed control at 1000 g/ha worked out at 0% in data set [1]; 0% in data set [2]; 0% in data set [3]; 10% in data set [4]; 0% in the data set on Setaria faberi (SETFA) [5]; 0% in the data set with Solanum nigrum (SOLNI) [6]. For the same compound, the pest or weed control at 1000 g/ha was 10% in data set [7]; 20% in data set [8]; 20% in data set [9]; 20% in data set [10]; 30% in the data set on Setaria faberi (SETFA) [11]; 30% with Solanum nigrum (SOLNI) [12].
Regarding `COC(=O)c1nc(-c2ccc(Cl)c(OC)c2F)nc2c1NCCN2Cc1ccccc1` [Compound 95-162, 8-benzyl-2-(4-chloro-2-fluoro-3-methoxyphenyl)-4-methoxycarbonyl-5,6,7,8-tetrahydropteridine], the pest or weed control at 1000 g/ha came to 10% in data set [1]; 0% in [2]; 0% in data set [3]; 40% in [4]; 0% in the data set with Setaria faberi (SETFA) [5]; 0% with Solanum nigrum (SOLNI) [6]. Further, the pest or weed control at 1000 g/ha in data set [7] was 10%; in data set [8] it was 70%; in data set [9], 0%; in data set [10], 30%; in the data set with Setaria faberi (SETFA) [11], 0%; with Solanum nigrum (SOLNI) [12] it was 40%.
As for `COC(=O)c1nc(-c2ccc(Cl)c(OC)c2F)nc2c1OCCN2C` [Compound 106-74, 2-(4-Chloro-2-fluoro-3-methoxyphenyl)-4-methoxycarbonyl-8-methyl-7,8-dihydro-6H-pyrimido[5,4-b][1,4]oxazine], the pest or weed control at 1000 g/ha (in data set [1]; in data set [2]; in data set [3]; in [4]; with Setaria faberi (SETFA) [5]; in the data set on Solanum nigrum (SOLNI) [6]) was 0% each time. Moreover, the pest or weed control at 1000 g/ha (in [7]; in data set [8]; in data set [9]; in [10]; in the data set on Setaria faberi (SETFA) [11]; with Solanum nigrum (SOLNI) [12]) was 0% each time.
`COC(=O)c1nc(-c2ccc(Cl)c(OC)c2F)nc2c1Nc1ccccc1N2` [Compound 119-168, 2-(4-chloro-2-fluoro-3-methoxyphenyl)-4-methoxycarbonyl-5,10-dihydro-benzo[g]pteridine]: the pest or weed control at 1000 g/ha (in data set [1]; in data set [2]; in data set [3]; in data set [4]; in the data set with Setaria faberi (SETFA) [5]; in the data set on Solanum nigrum (SOLNI) [6]) was 0% each time. Also, the pest or weed control at 1000 g/ha is 0% in data set [7]; 10% in data set [8]; 0% in data set [9]; 40% in data set [10]; 0% in the data set with Setaria faberi (SETFA) [11]; 30% in the data set with Solanum nigrum (SOLNI) [12].
For `COC(=O)c1nc(-c2ccc(Cl)c(OC)c2F)nc2nc3ccccc3nc12` [Compound 125-76, 2-(4-chloro-2-fluoro-3-methoxyphenyl)-4-methoxycarbonyl-benzo[g]pteridine], the pest or weed control at 1000 g/ha was 10% in [1]; 80% in [2]; 20% in data set [3]; 60% in data set [4]; 20% in the data set with Setaria faberi (SETFA) [5]; 70% with Solanum nigrum (SOLNI) [6]. In addition, the pest or weed control at 1000 g/ha in data set [7] was 10%; in data set [8] it was 100%; in [9], 70%; in data set [10], 80%; in the data set with Setaria faberi (SETFA) [11], 80%; in the data set with Solanum nigrum (SOLNI) [12], 90%.

These data come from patent US20120202690A1, “HERBICIDAL COMPOUNDS” (SYNGENTA LIMITED, priority 2009, published 2012).
